Assay results as given in patent US10793568B2, “Hormone receptor modulators for treating metabolic conditions and disorders” (ARDELYX, INC., priority 2016, dated 2020).
Where two headings read alike, the source gives them in different places.

Tests used:
[1] = target: human Farnesoid X receptor ligand-binding domain/Gal4 DNA binding domain chimera (Homo sapiens (Human), UniProt Q96RI1); test: Cell-based assay of FXR activation (FXR-UAS-bla HEK 293T beta-lactamase reporter); settings: cellular FXR beta-lactamase reporter assay; for Emax: HEK-293T, extent of activation relative to GW4064, read-out: % Efficacy; for EC50: FXR-UAS-bla HEK 293T cells, 16 h, pEC50 = -log EC50
Sequence of human Farnesoid X receptor ligand-binding domain/Gal4 DNA binding domain chimera (Q96RI1 262-486, change not shown): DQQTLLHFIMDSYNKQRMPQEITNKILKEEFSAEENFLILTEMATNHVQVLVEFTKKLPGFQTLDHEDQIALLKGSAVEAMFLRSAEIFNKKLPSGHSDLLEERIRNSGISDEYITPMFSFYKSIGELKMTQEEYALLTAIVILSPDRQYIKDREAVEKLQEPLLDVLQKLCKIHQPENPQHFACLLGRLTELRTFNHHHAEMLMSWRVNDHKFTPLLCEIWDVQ
Sequence of human Farnesoid X receptor ligand-binding domain/Gal4 DNA binding domain chimera (P04386 1-147 partner): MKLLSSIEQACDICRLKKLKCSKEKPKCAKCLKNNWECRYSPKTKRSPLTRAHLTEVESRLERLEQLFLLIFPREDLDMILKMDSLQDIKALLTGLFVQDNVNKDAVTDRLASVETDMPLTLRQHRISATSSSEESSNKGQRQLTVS
Summary of the method: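 Readout is cleavage of the CCF4 FRET substrate (409 nm excitation, blue 447 nm signal) by beta-lactamase, expressed under UAS control after a Gal4–human FXR LBD chimera is activated in HEK 293T cells. Compounds were added as 3-fold dilutions for 16 h at 37 °C in 2% charcoal-stripped FBS medium. Curves were fit to a 3-parameter logistic equation to give pEC50, with % activation relative to GW4064.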

[2] = target: ligand binding domain of human FXR (Homo sapiens (Human), UniProt Q96RI1); test: FXR ligand binding assay (LanthaScreen TR-FRET, SRC2-2 peptide recruitment); settings: for pEC50: -log EC50, concentration required to produce 50% activation; for Emax: read-out: % Efficacy
Sequence of ligand binding domain of human FXR (Q96RI1 262-486): as the sequence (Q96RI1 262-486, change not shown) above

[3] = extent of activation relative to GW4064

Structure (SMILES)	Emax [1] [%]	EC50 [1] [nM]	pEC50 [2]	Emax [2, 3] [%]	Emax [2] [%]
O=C(O)c1cc(F)c(N2C[C@@H]3C[C@H]2C[C@H]3OCc2c(-c3c(Cl)cccc3Cl)noc2C2CC2)cc1F [Compound I-105, 4-[(1S,4S,5R)-5-{[5-cyclopropyl-3-(2,6-dichlorophenyl)-1,2-oxazol-4-yl]methoxy}-2-azabicyclo[2.2.1]heptan-2-yl]-2,5-difluorobenzoic Acid]	112	1.26	9.4	142	
O=C(O)c1ccc(N2C[C@@H]3C[C@H]2C[C@H]3OCc2c(-c3c(Cl)cccc3Cl)noc2C2CC2)c(C(F)(F)F)c1 [Compound I-106, 4-((1S,4S,5R)-5-((5-cyclopropyl-3-(2,6-dichlorophenyl)isoxazol-4-yl)methoxy)-2-azabicyclo[2.2.1]heptan-2-yl)-3-(trifluoromethyl)benzoic acid]	106	0.631	8.6	126	
Cc1cc(C(=O)O)ccc1N1C[C@@H]2C[C@H]1C[C@H]2OCc1c(-c2c(Cl)cccc2Cl)noc1C1CC1 [Compound I-107, 4-((1S,4S,5R)-5-((5-cyclopropyl-3-(2,6-dichlorophenyl)isoxazol-4-yl)methoxy)-2-azabicyclo[2.2.1]heptan-2-yl)-3-methylbenzoic acid]	102	1	8.6	122	
O=C(O)c1ccc(N2C[C@@H]3C[C@H]2C[C@H]3OCc2c(-c3c(Cl)cccc3Cl)noc2C2CC2)c(C2CC2)c1 [Compound I-108, 3-cyclopropyl-4-((1S,4S,5R)-5-((5-cyclopropyl-3-(2,6-dichlorophenyl)isoxazol-4-yl)methoxy)-2-azabicyclo[2.2.1]heptan-2-yl)benzoic acid]	101	3.98	9.1	117	
CCc1cc(C(=O)O)ccc1N1C[C@@H]2C[C@H]1C[C@H]2OCc1c(-c2c(Cl)cccc2Cl)noc1C1CC1 [Compound I-109, 4-((1S,4S,5R)-5-((5-cyclopropyl-3-(2,6-dichlorophenyl)isoxazol-4-yl)methoxy)-2-azabicyclo[2.2.1]heptan-2-yl)-3-ethylbenzoic acid]	100	1.58	9.4	117	
O=C(O)c1ccc(N2C[C@@H]3C[C@H]2C[C@H]3OCc2c(-c3c(Cl)cccc3Cl)noc2C2CC2)c(F)c1F [Compound I-110, 4-((1S,4S,5R)-5-((5-cyclopropyl-3-(2,6-dichlorophenyl)isoxazol-4-yl)methoxy)-2-azabicyclo[2.2.1]heptan-2-yl)-2,3-difluorobenzoic acid]	111	1	10	132	
Cc1cc(N2C[C@@H]3C[C@H]2C[C@H]3OCc2c(-c3c(Cl)cccc3Cl)noc2C2CC2)ccc1C(=O)O [Compound I-111, 4-((1S,4S,5R)-5-((5-cyclopropyl-3-(2,6-dichlorophenyl)isoxazol-4-yl)methoxy)-2-azabicyclo[2.2.1]heptan-2-yl)-2-methylbenzoic acid]	100	1.26	9.3	132	
COc1cc(N2C[C@@H]3C[C@H]2C[C@H]3OCc2c(-c3c(Cl)cccc3Cl)noc2C2CC2)ccc1C(=O)O [Compound I-112, 4-((1S,4S,5R)-5-((5-cyclopropyl-3-(2,6-dichlorophenyl)isoxazol-4-yl)methoxy)-2-azabicyclo[2.2.1]heptan-2-yl)-2-methoxybenzoic acid]	100	5.01	9.4	116	
Cc1cccc(Cl)c1-c1noc(C2CC2)c1CO[C@@H]1C[C@@H]2C[C@H]1CN2c1ccc(C(=O)O)cc1F [Compound I-113, 4-[(1S,4S,5R)-5-[[3-(2-chloro-6-methylphenyl)-5-cyclopropyl-1,2-oxazol-4-yl]methoxy]-2-azabicyclo[2.2.1]heptan-2-yl]-3-fluorobenzoic acid]	101	0.794	8.8	126	
Cc1cccc(Cl)c1-c1noc(C2CC2)c1CO[C@@H]1C[C@@H]2C[C@H]1CN2c1ccc(C(=O)O)cc1 [Compound I-114, 4-[(1S,4S,5R)-5-{[3-(2-chloro-6-methylphenyl)-5-cyclopropyl-1,2-oxazol-4-yl]methoxy}-2-azabicyclo[2.2.1]heptan-2-yl]-benzoic Acid]	103	2.51		124	
Cc1cccc(Cl)c1-c1noc(C2CC2)c1CO[C@@H]1C[C@@H]2C[C@H]1CN2c1ccc(C(=O)O)c(F)c1 [Compound I-115, 4-[(1S,4S,5R)-5-{[3-(2-chloro-6-methylphenyl)-5-cyclopropyl-1,2-oxazol-4-yl]methoxy}-2-azabicyclo[2.2.1]heptan-2-yl]-2-fluorobenzoic Acid]	108	2	9.6	144	
Cc1cccc(C)c1-c1noc(C2CC2)c1CO[C@@H]1C[C@@H]2C[C@H]1CN2c1ccc(C(=O)O)cc1F [Compound I-116, 4-[(1S,4S,5R)-5-{[5-cyclopropyl-3-(2,6-dimethylphenyl)-1,2-oxazol-4-yl]methoxy}-2-azabicyclo[2.2.1]heptan-2-yl]-3-fluorobenzoic Acid]	102	3.98	8.6	131	
Cc1cccc(C)c1-c1noc(C2CC2)c1CO[C@@H]1C[C@@H]2C[C@H]1CN2c1ccc(C(=O)O)cc1 [Compound I-117, 4-[(1S,4S,5R)-5-{[5-cyclopropyl-3-(2,6-dimethylphenyl)-1,2-oxazol-4-yl]methoxy}-2-azabicyclo[2.2.1]heptan-2-yl]benzoic Acid]	100	7.94	8.2	113	
O=C(O)c1ccc(N2C[C@@H]3C[C@H]2C[C@H]3OCc2c(-c3c(F)cccc3Cl)noc2C2CC2)cc1 [Compound I-118, 4-[(1S,4S,5R)-5-{[3-(2-chloro-6-fluorophenyl)-5-cyclopropyl-1,2-oxazol-4-yl]methoxy}-2-azabicyclo[2.2.1]heptan-2-yl]benzoic Acid]	108	7.94	8.6	145	
O=C(O)c1ccc(N2C[C@@H]3C[C@H]2C[C@H]3OCc2c(-c3c(F)cccc3Cl)noc2C2CC2)c(F)c1 [Compound I-119, 4-[(1S,4S,5R)-5-{[3-(2-chloro-6-fluorophenyl)-5-cyclopropyl-1,2-oxazol-4-yl]methoxy}-2-azabicyclo[2.2.1]heptan-2-yl]-3-fluorobenzoic Acid]	104	0.631	8.7	145	
O=C(O)c1ccc(N2C[C@@H]3C[C@H]2C[C@H]3OCc2c(-c3ccccc3C(F)(F)F)noc2C2CC2)cc1 [Compound I-120, 4-[(1S,4S,5R)-5-({5-cyclopropyl-3-[2-(trifluoromethyl)phenyl]-1,2-oxazol-4-yl}methoxy)-2-azabicyclo[2.2.1]heptan-2-yl]benzoic Acid]	112	2	8	188	
O=C(O)c1ccc(N2C[C@@H]3C[C@H]2C[C@H]3OCc2c(-c3ccccc3C(F)(F)F)noc2C2CC2)c(F)c1 [Compound I-121, 4-[(1S,4S,5R)-5-({5-cyclopropyl-3-[2-(trifluoromethyl)phenyl]-1,2-oxazol-4-yl}methoxy)-2-azabicyclo[2.2.1]heptan-2-yl]-3-fluorobenzoic Acid]	107	1.26		174	
O=C(O)c1ccc(N2C[C@@H]3C[C@H]2C[C@H]3OCc2c(-c3c(Cl)cccc3Cl)noc2C2(F)CC2)cc1F [Compound I-122, 4-[(1S,4S,5R)-5-{[3-(2,6-dichlorophenyl)-5-(1-fluorocyclopropyl)-1,2-oxazol-4-yl]methoxy}-2-azabicyclo[2.2.1]heptan-2-yl]-2-fluorobenzoic Acid]	102	1.58	9.6	137	
N#Cc1cc(N2C[C@@H]3C[C@H]2C[C@H]3OCc2c(-c3c(Cl)cccc3Cl)noc2C2(F)CC2)ccc1C(=O)O [Compound I-123, 2-cyano-4-[(1S,4S,5R)-5-{[3-(2,6-dichlorophenyl)-5-(1-fluorocyclopropyl)-1,2-oxazol-4-yl]methoxy}-2-azabicyclo[2.2.1]heptan-2-yl]benzoic Acid]	99	0.501	8.6	160	
Cc1cccc(Cl)c1-c1noc(C2(F)CC2)c1CO[C@@H]1C[C@@H]2C[C@H]1CN2c1ccc(C(=O)O)c(F)c1 [Compound I-124, 4-[(1S,4S,5R)-5-{[3-(2-chloro-6-methylphenyl)-5-(1-fluorocyclopropyl)-1,2-oxazol-4-yl]methoxy}-2-azabicyclo[2.2.1]heptan-2-yl]-2-fluorobenzoic Acid]	105	3.98	9.7		143
O=C(O)c1ccc(N2C[C@@H]3C[C@H]2C[C@H]3OCc2c(C3CCC4(CC3)CC4)noc2C2CC2)cc1 [Compound I-125, 4-[(1S,4S,5R)-5-[(5-cyclopropyl-3-{spiro[2.5]octan-6-yl}-1,2-oxazol-4-yl)methoxy]-2-azabicyclo[2.2.1]heptan-2-yl]benzoic Acid]	106	251			92
O=C(O)c1ccc(N2C[C@@H]3C[C@H]2C[C@H]3OCc2c(C3CCC4(CC3)CC4)noc2C2CC2)c(F)c1 [Compound I-126, 4-[(1S,4S,5R)-5-[(5-cyclopropyl-3-{spiro[2.5]octan-6-yl}-1,2-oxazol-4-yl)methoxy]-2-azabicyclo[2.2.1]heptan-2-yl]-3-fluorobenzoic Acid]	106	39.8			114
